Some test systems named below: SNB-19 CNS; NCI-H23 lung; OVCAR-4 ovarian; UACC-62 melanoma; CCRF-CEM leukemia; COLO 205 colon; 786-0 renal; SF-295 CNS; SR leukemia; HCT-15 colon.
Assay in all cases: NCI-60 cell line screen, 48 h

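1) Cells in 96-well plates. 2) Compound, 48 h, 5 concentrations. 3) Linear interpolation between surrounding doses. 4) Unreached endpoint = highest concentration. Abbreviation: GI50, concentration required for 50% inhibition of growth. TGI: total growth inhibition.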

In the case of `COc1ccccc1NC(=O)C1=C(C)NC(C)=C(C(=O)Nc2ccccc2OC)C1c1ccc(C(C)C)cc1`, the TGI with SNB-19 CNS is above 100 µM; in the experiment on NCI-H23 lung it was above 100 µM; with OVCAR-4 ovarian it was above 100 µM; with UACC-62 melanoma, above 100 µM; with CCRF-CEM leukemia it was above 1 µM; with COLO 205 colon, above 100 µM. Further, the TGI in the experiment on 786-0 renal, in the experiment with SF-295 CNS, with SR leukemia and in the experiment on HCT-15 colon was above 100 µM throughout.
For the molecule `CCOC1NC(=O)Oc2ccccc21` (stereo not given), the TGI with SNB-19 CNS, in the experiment with NCI-H23 lung, in the experiment with OVCAR-4 ovarian, with UACC-62 melanoma, in the experiment on CCRF-CEM leukemia and in the experiment on COLO 205 colon was above 100 µM throughout. Besides, the TGI with 786-0 renal, in the experiment on SF-295 CNS, with SR leukemia and with HCT-15 colon was above 100 µM in each case.
As for `CC1OC(OP(=O)(OCc2ccccc2)OCc2ccccc2)C(OC(=O)c2ccccc2)C(OC(=O)c2ccccc2)C1I` (stereo not given), the TGI in the experiment on SNB-19 CNS was above 100 µM; with NCI-H23 lung it was above 100 µM; in the experiment on OVCAR-4 ovarian, above 100 µM; in the experiment on UACC-62 melanoma, above 100 µM; in the experiment on CCRF-CEM leukemia, above 100 µM; in the experiment on COLO 205 colon it was 84.8 µM. Further, the TGI is above 100 µM in the experiment with 786-0 renal, above 100 µM in the experiment on SF-295 CNS, 80.7 µM in the experiment with SR leukemia and above 100 µM in the experiment with HCT-15 colon.
Regarding `C/C=C/C1(NS(=O)(=O)c2ccc(C)cc2)CCC(C(C)(C)C)CC1` (stereo not given), the TGI in the experiment with SNB-19 CNS is above 100 µM; with NCI-H23 lung, 51.7 µM; with OVCAR-4 ovarian it was 48.4 µM; in the experiment on UACC-62 melanoma, 37.4 µM; in the experiment on CCRF-CEM leukemia, 43.2 µM; with COLO 205 colon, 42.3 µM. Also, the TGI with 786-0 renal was found to be 43.8 µM; in the experiment with SF-295 CNS it was 61.4 µM; in the experiment with SR leukemia, 32.9 µM; in the experiment on HCT-15 colon it was 93.7 µM.
With `C[n+]1c2ccccc2c(NC2CCNCC2)c2[nH]c3ccccc3c21`, the GI50 with SNB-19 CNS was 0.269 µM; in the experiment with NCI-H23 lung, 0.0944 µM; in the experiment with OVCAR-4 ovarian, 0.253 µM; with UACC-62 melanoma, 0.215 µM; in the experiment on CCRF-CEM leukemia, 0.48 µM; with COLO 205 colon, 0.264 µM. Also, the GI50 was 2.46 µM in the experiment with 786-0 renal, 0.64 µM in the experiment on SF-295 CNS, 1.7 µM with SR leukemia and 10.3 µM in the experiment on HCT-15 colon. For the same molecule, the TGI in the experiment on SNB-19 CNS was found to be 2.2 µM; with NCI-H23 lung, 0.88 µM; in the experiment with OVCAR-4 ovarian, 2.57 µM; with UACC-62 melanoma, 1.08 µM; in the experiment on CCRF-CEM leukemia it was 3.13 µM; in the experiment with COLO 205 colon, 2 µM. Also, the TGI in the experiment on 786-0 renal is 16.3 µM; in the experiment with SF-295 CNS it was 8.32 µM; in the experiment with SR leukemia, above 100 µM; with HCT-15 colon it was above 46 µM.
Consider `Cc1c(Cl)cccc1NC(=O)C(=O)C1C(=O)NC(=O)NC1=O`, for which the TGI in the experiment on SNB-19 CNS, in the experiment with NCI-H23 lung, in the experiment with OVCAR-4 ovarian, in the experiment on UACC-62 melanoma, in the experiment on CCRF-CEM leukemia and with COLO 205 colon was above 100 µM in each case. Besides, the TGI with 786-0 renal, in the experiment on SF-295 CNS, in the experiment with SR leukemia and in the experiment on HCT-15 colon was above 100 µM in each case.
As to `CO/N=C1/c2cc(OC)ccc2-c2c(NOC)nc3ccccc3c21`, the GI50 in the experiment on SNB-19 CNS was 17.5 µM; with NCI-H23 lung it was 28.6 µM; in the experiment with OVCAR-4 ovarian it was 27.3 µM; in the experiment on UACC-62 melanoma, 27.5 µM; in the experiment on CCRF-CEM leukemia, 70.1 µM; in the experiment with COLO 205 colon, 41.3 µM. Besides, the GI50 was 17.7 µM in the experiment on 786-0 renal, 32.8 µM with SF-295 CNS, 38.7 µM in the experiment with SR leukemia and 32.6 µM with HCT-15 colon. The TGI was 53 µM with SNB-19 CNS; 97.9 µM in the experiment on NCI-H23 lung; above 100 µM in the experiment on OVCAR-4 ovarian; above 100 µM in the experiment with UACC-62 melanoma; above 100 µM with CCRF-CEM leukemia; above 100 µM in the experiment with COLO 205 colon. Besides, the TGI in the experiment with 786-0 renal was 34.2 µM; in the experiment on SF-295 CNS, above 100 µM; with SR leukemia it was above 100 µM; in the experiment on HCT-15 colon it was above 100 µM.
As for `COc1ccc(Cc2ccccc2C(=O)O)c2ccccc12`, the TGI in the experiment on SNB-19 CNS is above 100 µM; with NCI-H23 lung it was 67.3 µM; with OVCAR-4 ovarian it was above 100 µM; in the experiment with UACC-62 melanoma it was 29.9 µM; in the experiment with CCRF-CEM leukemia, 95.3 µM; with COLO 205 colon, 34.5 µM. In addition, the TGI is above 100 µM in the experiment on 786-0 renal, 93 µM with SF-295 CNS, above 100 µM with SR leukemia and 92.4 µM in the experiment on HCT-15 colon.
With `COc1ccc(/C=C(/C(=O)N2CCNCC2)c2cc(OC)c(OC)c(OC)c2)cc1O`, the GI50 in the experiment with SNB-19 CNS is 3.91 µM; in the experiment on NCI-H23 lung, 5.16 µM; in the experiment on OVCAR-4 ovarian it was 8.15 µM; in the experiment on UACC-62 melanoma it was 3.15 µM; in the experiment with CCRF-CEM leukemia it was 3.23 µM; in the experiment on COLO 205 colon, 3.24 µM. Also, the GI50 in the experiment on 786-0 renal was 33.1 µM; in the experiment with SF-295 CNS, 5.36 µM; with SR leukemia it was 0.642 µM; with HCT-15 colon, 36.7 µM. Moreover, the TGI with SNB-19 CNS is above 100 µM; in the experiment with NCI-H23 lung, above 100 µM; with OVCAR-4 ovarian, above 100 µM; with UACC-62 melanoma, above 100 µM; in the experiment on CCRF-CEM leukemia, above 100 µM; in the experiment on COLO 205 colon, 14 µM. Also, the TGI is above 100 µM in the experiment with 786-0 renal, 60.3 µM in the experiment with SF-295 CNS, above 100 µM with SR leukemia and above 100 µM in the experiment on HCT-15 colon.
For `Cn1c2ccccc2c2c3c(c4c5ccccc5n(CCCCCC#N)c4c21)C(=O)N(O)C3=O`, the GI50 in the experiment on SNB-19 CNS was 0.545 µM; in the experiment on NCI-H23 lung it was 1.18 µM; in the experiment with OVCAR-4 ovarian, 1.91 µM; with UACC-62 melanoma, 0.465 µM; in the experiment on CCRF-CEM leukemia, 0.374 µM; in the experiment with COLO 205 colon it was 2.5 µM. Also, the GI50 was 1.59 µM with 786-0 renal, 3.03 µM in the experiment on SF-295 CNS, 0.333 µM in the experiment with SR leukemia and 1.82 µM in the experiment with HCT-15 colon. Moreover, the TGI in the experiment with SNB-19 CNS is above 100 µM; in the experiment with NCI-H23 lung, 9.91 µM; in the experiment on OVCAR-4 ovarian, 9.33 µM; in the experiment on UACC-62 melanoma, 2.03 µM; with CCRF-CEM leukemia, above 100 µM; with COLO 205 colon, 9.09 µM. Moreover, the TGI with 786-0 renal was 3.81 µM; in the experiment on SF-295 CNS it was 9.71 µM; with SR leukemia it was above 100 µM; in the experiment with HCT-15 colon, 50.9 µM.

For the origin of these results see PubChem BioAssay (NCI).
